{
  "source": "patent US5137711A",
  "about": "“Paramagnetic DTPA and EDTA alkoxyalkylamide complexes as MRI agents” (Mallickrodt Medical, Inc., priority 1989, dated 1992)",
  "tested_on": "ICR mice",
  "assay": "acute intravenous toxicity in ICR mice",
  "assay_type": "in vivo",
  "protocol": "The acute intravenous toxicity of the compound of Example II was determined as follows: ICR mice, at 1 to 4 per dose level, received single intravenous injections of the test substance via a lateral tail vein at the rate of approximately 1 ml/minute. The test substances were at concentrations chosen to result in dose volumes of 5 to 75 ml/kg body weight. Dosing began at a volume of 10 ml/kg. Dose adjustments up or down were made to closely bracket the estimated LD50 with 4 animals per group (2 males and 2 females). Observations of the mice were recorded at times 0, 0.5, 1,2,4 and 24 hours and once daily thereafter for up to 7 days post injection. On the 7th day post injection, the mice were euthanized, weighed and necropsied. Abnormal tissues were noted. At this time a decision was made as to whether any histopathology was to be performed and whether or not the tissues should be retained. Necropsies were also performed on mice expiring after 24 hours post-injection, except for dead mice found on the weekends The LD50 values, along with 95% CI were calculated using a modified Behrens-Reed-Meunch method. The results for the complex of Example II are reported below:\nSex and Weight Range of Mice: Males(18.0-20.3 g) Females (19.0-21.7 g)",
  "data": [
    {"molecule": "COCCNC(=O)CN(CCN(CCN(CC(=O)[O-])CC(=O)NCCOC)CC(=O)[O-])CC(=O)[O-].[Gd+3]", "note": "[Example II, {N,N\"-Bis[N-(2-methoxyethyl)-carbamoylmethyl]diethylenetriamine-N,N',N\"-triaceto} gadolinium (III)]", "values": [
      {"measurement": "Body weight of surviving mice", "setting": "7-day post-injection period, i.v.", "value": "failed to gain weight"},
      {"measurement": "i.v. toxicity (overall, in words)", "setting": "preliminary tests, mice", "value": "low order of i.v. toxicity"}
    ]}
  ]
}
